Measured values as given in patent publication US9708314B2, “Heterocyclic amide compound” (NISSAN CHEMICAL INDUSTRIES, LTD., priority 2013, dated 2017).

What was measured:
Format in all cases: in vivo
[1] = tested on: Monochoria vaginalis; test: Test Example 1: herbicidal activity, application before weed generation in submerged conditions; conditions: Application herbicide amount 320 g/ha; Seventeenth Table
Summary of the method: (§1)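 Pre-emergence application to water surface of submerged pots (4 cm depth, alluvial soil) on sowing day, with 2.5-leaf rice transplanted; emulsion diluted to g/ha rates. Grown in greenhouse at 25–30 °C; 0–5 herbicidal/crop-effect score after three weeks.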

[2] = tested on: Scirpus juncoides; test: as above; conditions: Application herbicide amount 320 g/ha; Seventeenth Table
Summary of the method: as §1

[3] = tested on: Echinochloa oryzacola Vasing.; test: as above; conditions: Application herbicide amount 320 g/ha; Seventeenth Table
Summary of the method: as §1

[4] = tested on: transplanted Oryza sativa; test: Test Example 1: effect on crop, application before weed generation in submerged conditions; conditions: Application herbicide amount 320 g/ha; Seventeenth Table
Summary of the method: as §1

[5] = tested on: Beta vulgaris ssp. vulgaris; test: Test Example 4: effect on crop by application to foliage (diluvial soil, plastic box); conditions: Application herbicide amount 320 g/ha; effect on crop
Summary of the method: (§2)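 Plants were grown in sterilized diluvial soil in a greenhouse at 25-30° C for 14 days, then sprayed on stems and leaves with water-diluted emulsion formulation at set rates in g/ha. Weed control and crop injury were scored 3 weeks after treatment on a 0-5 herbicidal-ratio scale, from 0 (≤5%) to 5 (≥90%).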

[6] = tested on: directly sowed Oryza sativa; test: as above; conditions: Application herbicide amount 320 g/ha; effect on crop
Summary of the method: as §2

[7] = tested on: Glycine max; test: as above; conditions: Application herbicide amount 320 g/ha; effect on crop
Summary of the method: as §2

[8] = tested on: Zea mays; test: as above; conditions: Application herbicide amount 320 g/ha; effect on crop
Summary of the method: as §2

[9] = tested on: Triticum aestivum; test: as above; conditions: Application herbicide amount 320 g/ha; effect on crop
Summary of the method: as §2

[10] = tested on: Brassica campestris L.; test: as above; conditions: Application herbicide amount 320 g/ha; effect on crop
Summary of the method: as §2

Cc1nnc(NC(=O)c2ccc(C(F)(F)F)n3c(C(C)[S+](C)[O-])nnc23)o1 (stereo not shown) [1-079]
C: Monochoria vaginalis (herbicidal effect grade) [1]: 3 (Herbicidal ratio of 40% or more and less than 70%) | B: Scirpus juncoides (herbicidal effect grade) [2]: 4 (Herbicidal ratio of 70% or more and less than 90%) | A: Echinochloa oryzicola Vasing. (herbicidal effect grade) [3]: 4 (Herbicidal ratio of 70% or more and less than 90%) | a: transplanted Oryza sativa (effect on crop grade) [4]: 4 (Herbicidal ratio of 70% or more and less than 90%) | f [5]: 5 (Herbicidal ratio of 90% or more (almost completely withered)) | d [6]: 5 (Herbicidal ratio of 90% or more (almost completely withered)) | c [7]: 1 (Herbicidal ratio of 5% or more and less than 20%) | b [8]: 4 (Herbicidal ratio of 70% or more and less than 90%) | e [9]: 4 (Herbicidal ratio of 70% or more and less than 90%) | g [10]: 5 (Herbicidal ratio of 90% or more (almost completely withered))

Cc1nnc(NC(=O)c2ccc(C(F)(F)F)n3c(C(C)S(C)(=O)=O)nnc23)o1 (stereo not shown) [1-080]
C: Monochoria vaginalis (herbicidal effect grade) [1]: 4 (Herbicidal ratio of 70% or more and less than 90%) | B: Scirpus juncoides (herbicidal effect grade) [2]: 4 (Herbicidal ratio of 70% or more and less than 90%) | A: Echinochloa oryzicola Vasing. (herbicidal effect grade) [3]: 5 (Herbicidal ratio of 90% or more (almost completely withered)) | a: transplanted Oryza sativa (effect on crop grade) [4]: 4 (Herbicidal ratio of 70% or more and less than 90%) | f [5]: 5 (Herbicidal ratio of 90% or more (almost completely withered)) | d [6]: 5 (Herbicidal ratio of 90% or more (almost completely withered)) | c [7]: 4 (Herbicidal ratio of 70% or more and less than 90%) | b [8]: 4 (Herbicidal ratio of 70% or more and less than 90%) | e [9]: 5 (Herbicidal ratio of 90% or more (almost completely withered)) | g [10]: 5 (Herbicidal ratio of 90% or more (almost completely withered))

CSCCc1nnc2c(C(=O)Nc3nnc(C)o3)ccc(C(F)(F)F)n12 [1-083]
C: Monochoria vaginalis (herbicidal effect grade) [1]: 3 (Herbicidal ratio of 40% or more and less than 70%) | B: Scirpus juncoides (herbicidal effect grade) [2]: 3 (Herbicidal ratio of 40% or more and less than 70%) | A: Echinochloa oryzicola Vasing. (herbicidal effect grade) [3]: 2 (Herbicidal ratio of 20% or more and less than 40%) | a: transplanted Oryza sativa (effect on crop grade) [4]: 0 (Herbicidal ratio of 5% or less (almost no effect)) | f [5]: 5 (Herbicidal ratio of 90% or more (almost completely withered)) | d [6]: 4 (Herbicidal ratio of 70% or more and less than 90%) | c [7]: 1 (Herbicidal ratio of 5% or more and less than 20%) | b [8]: 1 (Herbicidal ratio of 5% or more and less than 20%) | e [9]: 1 (Herbicidal ratio of 5% or more and less than 20%) | g [10]: 4 (Herbicidal ratio of 70% or more and less than 90%)

Cc1nnc(NC(=O)c2ccc(C(F)(F)F)n3c(CC[S+](C)[O-])nnc23)o1 (stereo not shown) [1-084]
C: Monochoria vaginalis (herbicidal effect grade) [1]: 2 (Herbicidal ratio of 20% or more and less than 40%) | B: Scirpus juncoides (herbicidal effect grade) [2]: 3 (Herbicidal ratio of 40% or more and less than 70%) | A: Echinochloa oryzicola Vasing. (herbicidal effect grade) [3]: 2 (Herbicidal ratio of 20% or more and less than 40%) | a: transplanted Oryza sativa (effect on crop grade) [4]: 0 (Herbicidal ratio of 5% or less (almost no effect)) | f [5]: 4 (Herbicidal ratio of 70% or more and less than 90%) | d [6]: 4 (Herbicidal ratio of 70% or more and less than 90%) | c [7]: 1 (Herbicidal ratio of 5% or more and less than 20%) | b [8]: 3 (Herbicidal ratio of 40% or more and less than 70%) | e [9]: 0 (Herbicidal ratio of 5% or less (almost no effect)) | g [10]: 4 (Herbicidal ratio of 70% or more and less than 90%)

Cc1nnc(NC(=O)c2ccc(C(F)(F)F)n3c(CCS(C)(=O)=O)nnc23)o1 [1-085]
C: Monochoria vaginalis (herbicidal effect grade) [1]: 3 (Herbicidal ratio of 40% or more and less than 70%) | B: Scirpus juncoides (herbicidal effect grade) [2]: 4 (Herbicidal ratio of 70% or more and less than 90%) | A: Echinochloa oryzicola Vasing. (herbicidal effect grade) [3]: 3 (Herbicidal ratio of 40% or more and less than 70%) | a: transplanted Oryza sativa (effect on crop grade) [4]: 3 (Herbicidal ratio of 40% or more and less than 70%) | f [5]: 4 (Herbicidal ratio of 70% or more and less than 90%) | d [6]: 4 (Herbicidal ratio of 70% or more and less than 90%) | c [7]: 3 (Herbicidal ratio of 40% or more and less than 70%) | b [8]: 3 (Herbicidal ratio of 40% or more and less than 70%) | e [9]: 3 (Herbicidal ratio of 40% or more and less than 70%) | g [10]: 4 (Herbicidal ratio of 70% or more and less than 90%)

Cc1nnc(NC(=O)c2ccc(C(F)(F)F)n3c(N(C)c4ccccc4)nnc23)o1 [1-086]
C: Monochoria vaginalis (herbicidal effect grade) [1]: 4 (Herbicidal ratio of 70% or more and less than 90%) | B: Scirpus juncoides (herbicidal effect grade) [2]: 4 (Herbicidal ratio of 70% or more and less than 90%) | A: Echinochloa oryzicola Vasing. (herbicidal effect grade) [3]: 5 (Herbicidal ratio of 90% or more (almost completely withered)) | a: transplanted Oryza sativa (effect on crop grade) [4]: 5 (Herbicidal ratio of 90% or more (almost completely withered)) | f [5]: 5 (Herbicidal ratio of 90% or more (almost completely withered)) | d [6]: 1 (Herbicidal ratio of 5% or more and less than 20%) | c [7]: 1 (Herbicidal ratio of 5% or more and less than 20%) | b [8]: 1 (Herbicidal ratio of 5% or more and less than 20%) | e [9]: 0 (Herbicidal ratio of 5% or less (almost no effect)) | g [10]: 4 (Herbicidal ratio of 70% or more and less than 90%)

Cc1nnc(NC(=O)c2ccc(C(F)(F)F)n3c(NC(C)C)nnc23)o1 [1-090]
C: Monochoria vaginalis (herbicidal effect grade) [1]: 2 (Herbicidal ratio of 20% or more and less than 40%) | B: Scirpus juncoides (herbicidal effect grade) [2]: 4 (Herbicidal ratio of 70% or more and less than 90%) | A: Echinochloa oryzicola Vasing. (herbicidal effect grade) [3]: 3 (Herbicidal ratio of 40% or more and less than 70%) | a: transplanted Oryza sativa (effect on crop grade) [4]: 0 (Herbicidal ratio of 5% or less (almost no effect)) | f [5]: 5 (Herbicidal ratio of 90% or more (almost completely withered)) | d [6]: 4 (Herbicidal ratio of 70% or more and less than 90%) | c [7]: 1 (Herbicidal ratio of 5% or more and less than 20%) | b [8]: 0 (Herbicidal ratio of 5% or less (almost no effect)) | e [9]: 0 (Herbicidal ratio of 5% or less (almost no effect)) | g [10]: 4 (Herbicidal ratio of 70% or more and less than 90%)

CC(C)Sc1nnc2c(C(=O)Nc3nnco3)ccc(C(F)(F)F)n12 [1-091]
C: Monochoria vaginalis (herbicidal effect grade) [1]: 5 (Herbicidal ratio of 90% or more (almost completely withered)) | B: Scirpus juncoides (herbicidal effect grade) [2]: 5 (Herbicidal ratio of 90% or more (almost completely withered)) | A: Echinochloa oryzicola Vasing. (herbicidal effect grade) [3]: 5 (Herbicidal ratio of 90% or more (almost completely withered)) | a: transplanted Oryza sativa (effect on crop grade) [4]: 0 (Herbicidal ratio of 5% or less (almost no effect)) | f [5]: 5 (Herbicidal ratio of 90% or more (almost completely withered)) | d [6]: 4 (Herbicidal ratio of 70% or more and less than 90%) | c [7]: 2 (Herbicidal ratio of 20% or more and less than 40%) | b [8]: 0 (Herbicidal ratio of 5% or less (almost no effect)) | e [9]: 3 (Herbicidal ratio of 40% or more and less than 70%) | g [10]: 5 (Herbicidal ratio of 90% or more (almost completely withered))

CCC[S+]([O-])c1nnc2c(C(=O)Nc3nnc(C)o3)ccc(C(F)(F)F)n12 (stereo not shown) [1-092]
C: Monochoria vaginalis (herbicidal effect grade) [1]: 4 (Herbicidal ratio of 70% or more and less than 90%) | B: Scirpus juncoides (herbicidal effect grade) [2]: 5 (Herbicidal ratio of 90% or more (almost completely withered)) | A: Echinochloa oryzicola Vasing. (herbicidal effect grade) [3]: 5 (Herbicidal ratio of 90% or more (almost completely withered)) | a: transplanted Oryza sativa (effect on crop grade) [4]: 3 (Herbicidal ratio of 40% or more and less than 70%) | f [5]: 5 (Herbicidal ratio of 90% or more (almost completely withered)) | d [6]: 4 (Herbicidal ratio of 70% or more and less than 90%) | c [7]: 1 (Herbicidal ratio of 5% or more and less than 20%) | b [8]: 5 (Herbicidal ratio of 90% or more (almost completely withered)) | e [9]: 0 (Herbicidal ratio of 5% or less (almost no effect)) | g [10]: 3 (Herbicidal ratio of 40% or more and less than 70%)

Cc1nnc(NC(=O)c2ccc(C(F)(F)F)n3c(SCC(C)C)nnc23)o1 [1-093]
C: Monochoria vaginalis (herbicidal effect grade) [1]: 3 (Herbicidal ratio of 40% or more and less than 70%) | B: Scirpus juncoides (herbicidal effect grade) [2]: 4 (Herbicidal ratio of 70% or more and less than 90%) | A: Echinochloa oryzicola Vasing. (herbicidal effect grade) [3]: 5 (Herbicidal ratio of 90% or more (almost completely withered)) | a: transplanted Oryza sativa (effect on crop grade) [4]: 0 (Herbicidal ratio of 5% or less (almost no effect)) | f [5]: 5 (Herbicidal ratio of 90% or more (almost completely withered)) | d [6]: 3 (Herbicidal ratio of 40% or more and less than 70%) | c [7]: 4 (Herbicidal ratio of 70% or more and less than 90%) | b [8]: 0 (Herbicidal ratio of 5% or less (almost no effect)) | e [9]: 0 (Herbicidal ratio of 5% or less (almost no effect)) | g [10]: 3 (Herbicidal ratio of 40% or more and less than 70%)
